Reference: patent US20030065030A1, “Autonomic controlling agents and health drinks and foods” (priority 2001, published 2003)

Assays:
[1] = tested on: carnosine-degrading enzyme; assay: carnosine-degrading enzyme activity in the plasma of rats; assay type: in vitro ADME
STZ diabetic rats = assay: anti-hyperglycemia in the STZ diabetic rats undergoing the oral glucose tolerance test; assay type: in vivo, rat
Method: Wistar male rats (initial weight, about 250 g) were used. They were housed in a room illuminated with an incandescent light of 80 luxes on the average for 12 hours with free access to feed, and adapted to the environment at least 10 days. Three days before the experiment, rats under anesthesia with pentobarbital (35 mg/kg body weight, intraperitoneal administration) received the insertion of a cardiac catheter comprising a silastic tubing (Dow Corning, Midland, Mich.) and a polyethylene tubing (Clay Adams, Parsippany, N.J.) into the right atrium and a polyethylene tubing into the right lateral cerebral ventricle (LCV).
Then, the STZ (streptozotocin) diabetic rats were created according to the report by Portha et al. (Diabetes 30:64-69, 1981). Streptozotocin (STZ, manufactured by Sigma) dissolved in 0.05 M citric acid solution (pH 4.5) at a concentration of […] was intraperitoneally administered at 60 mg/kg body weight. To the STZ diabetic rats thus created, an aqueous solution of glucose dissolved at 0.5 g/ml was orally administered at 1 ml (0.5 g) per animal (oral glucose load). Simultaneously with the glucose load, carnosine dissolved in physiological saline was administered to the rats intracranially (0.01 ml) or intraperitoneally (0.1 ml).
The oral administration employed a sonde, and the intracranially administration was performed via a LVC polyethylene tube and the intraperitoneal administration employed an injection syringe and a needle. The control rats received physiological saline instead of carnosine, and an artificial cerebrospinal fluid instead of 2DG, each at the same amount. Before and at 15, 30, 60, and 90 minutes after the oral administration of glucose, 300 μl of blood was taken via the cardiac catheter and the glucose concentrations in the plasma (blood glucose levels) were determined. The glucose concentration in the plasma at the time of carnosine administration was calculated as a ratio (%) relative to the plasma glucose concentration before glucose administration set at 100. Four or five rats were used in the experiment. Data were tested with ANOVA (p<0.05) and were expressed as mean +/− standard error.

[2] = tested on: vagal nerve celiac branches; assay: efferent neural activity of the vagal nerve celiac branches after intravenous carnosine; assay type: in vivo, rat; settings: 100 ng intravenous
Method: (§1) According to the method of Niijima (Neurobiology 3:299-307, 1995), the effect of carnosine on the autonomic nerve activity was investigated. Wistar male rats, weighing about 300 g, that had been kept in an environment of room temperature (24° C.) and free access to the feed were fasted (with free access to water) 12 hours before the start of the experiment. Rats were subjected to abdominal section under urethane anesthesia (1 g/kg body weight, intraperitoneal administration), neurofilaments were isolated from central cut ends of a sympathetic nerve branch or a vagal nerve branch, and the efferent neural activity was recorded via an AC amplifier. The neural activity was observed using an oscilloscope and was recorded into magnetic tape. At the same time, the time course of the neural activity was recorded with a pen-type recorder via a rate meter with a reset time set at 5 seconds.
(§2) Carnosine (100 ng or 1,000 ng dissolved in 0.1 ml physiological saline) was intravenously administered. As the control, physiological saline (0.1 ml) was alone administered intravenously.
(§3) The effect of carnosine administration was calculated as the neural activity count (%) after carnosine administration relative to neural activity count (mean value of 10 activity counts during 5 minutes) before administration set at 100. Five rats were used for each experiment. Data were tested with ANOVA (p<0.05) and were expressed as mean +/− standard error.
In order to study the effect on the neural activity of the vagal nerve, the efferent neural activity of the vagal nerve celiac branches was recorded.

[3] = tested on: sympathetic nerve renal branches; assay: efferent neural activity of the sympathetic nerve renal branches after intravenous carnosine; assay type: in vivo, rat; settings: 1,000 ng intravenous
Method: as §1, §2, §3

[4] = tested on: autonomic nervous system in humans; assay: autonomic nerve activity in humans by ECG R-R interval power spectral analysis; assay type: in vivo, human; settings: for mean promotion ratio of the overall autonomic nerve activity / mean promotion ratio of the parasympathetic nerve activity: responding subjects
Method: The resting ECG of the subjects was measured for 5 minutes, and ECG was measured for 5 minutes at 30 minutes and 60 minutes after drinking the test sample, respectively. In order to avoid influences by changes in respiration, ECG was measured when the subjects were forced to respire at 15 respirations per minute. The intervals between R-waves (R-R intervals) of the ECG were determined, and were subjected to a power spectral analysis according to the program prepared by Moritani et al. (J. Sport Med. Sci. 7:31-39, 1993). For cycle components, in conformity to the classification criteria of the Cardiology society in Europe and the USA (Circulation 93:1043-1065, 1996), heart rate variation was divided into the low frequency (0.03-0.15 Hz) and the high frequency (0.15-0.4 Hz).
Carnosine was weighed out on a chartula at 0.04 mg, 0.2 mg, 1 mg, 5 mg, and 25 mg/capita. For 0.2 mg, one mg of a 1:4 mixture of carnosine and starch powder (⅕ dilution) was weighed out. For 0.04 mg, one mg of a 1:4 mixture of carnosine and starch powder that further mixed with the starch powder at 1:4 ( 1/25 dilution) was weighed out. Carnosine was taken by licking the one weighed out on chartula.
There were 8 subjects, 21-51 years old (33.0 +/− 11.95 years old) and weighing 54-73.5 kg (64.3 +/− 7.01 kg), and among them, the experiments of the 0.04 mg and the 0.2 mg were performed on six subjects, the experiments of the 1 mg and the 5 mg were performed on 8 subjects, and the experiment of the 25 mg was performed on 5 subjects.

[5] = tested on: sympathetic nerve hepatic branches; assay: efferent neural activity of the sympathetic nerve hepatic branches after intravenous carnosine; assay type: in vivo, rat; settings: 100 ng intravenous
Method: as §1, §2, §3

[6] = 30 minutes after administration
[7] = 60 minutes after administration
[8] = 90 minutes after administration
[9] = 0.04 mg oral ingestion, the one responding subject

NCCC(=O)N[C@@H](Cc1cnc[nH]1)C(=O)O [carnosine, β-alanyl-L-histidine]
carnosine-degrading enzyme activity [1]: 0.01 to 0.04 µmol/h/mL
suppression rate of increase in blood glucose by oral glucose load (STZ diabetic rats; 10 ng intracranial, 15 minutes): 14.5%
suppression rate of increase in blood glucose by oral glucose load (STZ diabetic rats; 10 ng intracranial, 30 minutes): 17.3%
suppression rate of increase in blood glucose by oral glucose load (STZ diabetic rats; 10 ng intracranial, 60 minutes): 14.7%
suppression rate of increase in blood glucose by oral glucose load (STZ diabetic rats; 10 ng intracranial, 90 minutes): 11.4%
suppression rate of increase in blood glucose by oral glucose load (STZ diabetic rats; 100 ng intraperitoneal, 60 minutes): 14.3%
suppression rate of increase in blood glucose by oral glucose load (STZ diabetic rats; 100 ng intraperitoneal, 90 minutes): 12.4%
promotion rate of efferent neural activity of the vagal nerve celiac branches [2, 6]: 15.4%
promotion rate of efferent neural activity of the vagal nerve celiac branches [2, 7]: 28.6%
promotion rate of efferent neural activity of the vagal nerve celiac branches [2, 8]: 48.7%
suppression rate of efferent neural activity of the sympathetic nerve renal branches [3, 6]: 29.7%
suppression rate of efferent neural activity of the sympathetic nerve renal branches [3, 7]: 32.8%
suppression rate of efferent neural activity of the sympathetic nerve renal branches [3, 8]: 28.0%
ratio of those who exhibited promotion (more than 200% of the previous value of the parasympathetic nerve activity) ([4]; 0.04 mg oral ingestion): 16.7%
promotion ratio of the overall autonomic nerve activity [4, 9]: 195%
promotion ratio of the parasympathetic nerve activity [4, 9]: 249%
ratio of those who exhibited promotion (more than 200% of the previous value of the parasympathetic nerve activity) ([4]; 0.2 mg oral ingestion): 66.7%
mean promotion ratio of the overall autonomic nerve activity ([4]; 0.2 mg oral ingestion): 329%
mean promotion ratio of the parasympathetic nerve activity ([4]; 0.2 mg oral ingestion): 436%
ratio of those who exhibited promotion (more than 200% of the previous value of the parasympathetic nerve activity) ([4]; 1 mg oral ingestion): 37.5%
mean promotion ratio of the overall autonomic nerve activity ([4]; 1 mg oral ingestion): 190%
mean promotion ratio of the parasympathetic nerve activity ([4]; 1 mg oral ingestion): 259%
ratio of those who exhibited promotion (more than 200% of the previous value of the parasympathetic nerve activity) ([4]; 5 mg oral ingestion): 25.0%
mean promotion ratio of the overall autonomic nerve activity ([4]; 5 mg oral ingestion): 410%
mean promotion ratio of the parasympathetic nerve activity ([4]; 5 mg oral ingestion): 472%
ratio of those who exhibited promotion (more than 200% of the previous value of the parasympathetic nerve activity) ([4]; 25 mg oral ingestion): 0%
suppression rate of efferent neural activity of the sympathetic nerve hepatic branches [5, 6]: 20.1%
suppression rate of efferent neural activity of the sympathetic nerve hepatic branches [5, 7]: 25.9%
suppression rate of efferent neural activity of the sympathetic nerve hepatic branches [5, 8]: 32.0%
